Laboratory results published in PMC3731359 (PLoS ONE, 2013).
Entries after “also recorded” stand apart in the source; their conditions may differ.

What was measured:
Ubc12 [1] = assay: Western blot: peptide transfer to Ubc12; format: biochemical; conditions: 5 µM peptide biotin-conjugated at N-terminus, 1 µM NAE, 1 µM Ubc12, 1 µM cullin, 1 h, room temperature, streptavidin-HRP blot
Protocol: (§1) The peptides were conjugated to biotin at their N-termini. The Uba3 subunit of NAE formed the thioester conjugate with the peptides. The Western blot was probed with streptavidin conjugated to HRP.
(§2) Biotin Conjugation of the Peptides
(§3) Heptameric peptides with the C-terminal sequences of wt UB, wt Nedd8, and UB variants from phage selection were ordered from EZBiolab (Carmel, Indiana). The peptides were further purified by HPLC to be more than 95% pure. Peptide pN1 (2 mg, […]) was added to a solution of N-hydroxysuccinimidyl-6′-(biotinamido)-6-hexanamido hexanoate (NHS-LC-LC-biotin, Pierce) (4.4 mg, 7.750 µmol) in 50 mM sodium phosphate buffer (pH 7.0, 300 µL) and DMSO (300 µL). The reaction was allowed to proceed by stirring overnight at room temperature. The reaction mixture was then purified by HPLC with a gradient of 5–85% acetonitrile in 0.1% TFA/water at a flow rate of 10 mL/min over the course of 25 minutes. Biotin was conjugated to the N-terminal amino groups of the peptides pN7 and N26 with the same procedure. The purified biotin-peptide conjugates were lyophilized, and their identities were confirmed via MALDI-TOF mass spectrometry (positive mode): biotin-pN1 (VWLSYGG), calculated: 1256.10 Da (MNa^+), found: 1254.87 Da; biotin-pN7 (VMLFYGG), calculated: 1261.19 Da (MNa^+), found:1260.49 Da; biotin-pN26 (VLALRGG), calculated: 1138.06 Da (MH^+), found:1137.78 Da.
(§4) To assay the transfer of biotin conjugated peptides to NAE, Ubc12 and cullin, 5 µM biotin labeled peptide, 1 µM NAE, 1 µM Ubc12 and 1 µM cullin were incubated with 1 mM ATP, 10 mM MgCl2 and 50 µM DTT in the TBS buffer for 1 hour at room temperature before SDS-PAGE and membrane blotting. The membrane was blocked with 3% BSA in TBS buffer for 1 hour followed by incubation with 3% BSA in TBS buffer containing 1∶10,000 diluted 1 mg/mL streptavidin-horse radish peroxidase conjugate (Pierce) for 1 hour. The membrane was then washed 5 times with TBS-T buffer and 5 times with TBS buffer followed by detection with the ECL luminescent detection kit.

cullin-3 [2] = assay: Inhibition of Nedd8 transfer to cullin (cullin neddylation); format: biochemical; conditions: 5–200 µM peptide, 0.5 µM NAE, 0.5 µM Ubc12, 1 µM cullin, 1 h, then 5 µM HA-Nedd8, 15 min, Western blot
From the text: as §1

NAE [3] = molecular target: T1, NAE (Homo sapiens, UniProt Q13564+Q8TBC4); assay: Inhibition of Nedd8 transfer through the cascade: NAE conjugate; format: biochemical; conditions: 5–200 µM peptide, 0.5 µM NAE, 0.5 µM Ubc12, 1 µM cullin, 1 h, then 5 µM HA-Nedd8, 15 min, Western blot
T1 construct: made in house; host or cells: E. coli BL21(DE3)pLysS
T1 sequence (Q8TBC4 22-463 limits assumed): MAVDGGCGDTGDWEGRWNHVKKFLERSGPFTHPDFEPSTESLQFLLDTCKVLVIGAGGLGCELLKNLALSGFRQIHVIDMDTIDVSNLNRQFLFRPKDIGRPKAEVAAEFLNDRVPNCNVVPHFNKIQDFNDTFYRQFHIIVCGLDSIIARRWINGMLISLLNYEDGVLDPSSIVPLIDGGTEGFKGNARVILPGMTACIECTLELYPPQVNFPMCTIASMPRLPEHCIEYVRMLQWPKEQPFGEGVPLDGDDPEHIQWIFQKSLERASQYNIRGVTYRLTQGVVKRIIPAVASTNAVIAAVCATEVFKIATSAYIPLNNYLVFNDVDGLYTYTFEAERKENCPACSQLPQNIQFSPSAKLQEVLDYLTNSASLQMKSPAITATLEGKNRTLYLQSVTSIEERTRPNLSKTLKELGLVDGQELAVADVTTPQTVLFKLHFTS
T1 sequence (Q13564 1-534 partner): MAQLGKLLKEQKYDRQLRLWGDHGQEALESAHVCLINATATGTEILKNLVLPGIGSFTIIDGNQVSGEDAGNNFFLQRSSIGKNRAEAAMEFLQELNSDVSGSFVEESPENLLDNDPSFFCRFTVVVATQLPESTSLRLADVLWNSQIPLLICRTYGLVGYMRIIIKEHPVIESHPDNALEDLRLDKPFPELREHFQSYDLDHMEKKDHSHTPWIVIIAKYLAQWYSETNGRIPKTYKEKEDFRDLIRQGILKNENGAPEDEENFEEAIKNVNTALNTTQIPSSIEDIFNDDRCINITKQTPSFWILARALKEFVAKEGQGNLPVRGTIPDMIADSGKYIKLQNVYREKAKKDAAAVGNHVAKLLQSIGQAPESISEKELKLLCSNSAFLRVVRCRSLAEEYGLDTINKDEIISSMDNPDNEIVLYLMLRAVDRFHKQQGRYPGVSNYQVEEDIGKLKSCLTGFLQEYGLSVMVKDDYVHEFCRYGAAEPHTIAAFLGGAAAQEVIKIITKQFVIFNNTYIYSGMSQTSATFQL
From the text: as §1

NAE [4] = molecular target: T1, NAE; assay: Western blot: peptide∼NAE thioester conjugate formation; format: biochemical; conditions: 5 µM peptide biotin-conjugated at N-terminus, 1 µM NAE, 1 mM ATP, 1 h, room temperature, streptavidin-HRP blot
Protocol: as §1, §2, §3, §4

NAE [5] = molecular target: T1, NAE; assay: ATP/PPi exchange assay (NAE activation kinetics); format: biochemical; conditions: for activation by NAE: 50 µM heptameric peptide, 0.5 µM NAE, 30 min, room temperature, versus background with no peptide added; for kcat/Km: Nedd8 mimicking heptameric peptides, 0.1 µM NAE, 10–1000 µM peptide, pH 7.5, room temperature
From the text: We used the ATP/PPi exchange assay [28], [29] to measure the kinetics of NAE activation of UB mutants. In this assay, NAE catalyzes the condensation of UB with ATP to form a UB-AMP conjugate coupled to the release of PPi. Externally added PPi labeled with the radioactive isotope ^32P sets the reaction in reverse thus incorporating ^32PPi into ATP. Radioactive ATP formed in the reaction is captured by charcoal and quantified. The rate of ^32PPi exchange into ATP reflects the reactivities of NAE with the UB variants to form UB-AMP intermediates.
The reaction was incubated for 30 min at room temperature and then quenched by the addition of 0.5 mL slurry of charcoal in 2% trichloroacetic acid. After centrifugation, the charcoal pellet was washed 3 times each time with 1 mL 2% trichloroacetic acid, and eventually resuspended in 0.5 mL water and 3.5 mL Ultima Gold LSC-cocktail (Perkin Elmer). The radioactivity bound to charcoal was determined by liquid scintillation counting.
The reaction was incubated at room temperature for 5, 10, 15, 20 and 25 minutes before it was quenched with the addition of 0.5 mL slurry of charcoal in 2% trichloroacetic acid. The radioactivity incorporated into charcoal-bound ATP was measured by liquid scintillation counting. K1/2 and kcat values of the ATP-PPi exchange reaction were calculated by fitting the data to the Michaelis-Menten equation with the data analysis software Origin. To measure peptide activation by NAE, 0.1 µM NAE was used in the reaction with the concentration of the peptides varying from 10 µM to 1000 µM.

cullin 3 = assay: Western blot: peptide transfer to cullin 3; format: biochemical; conditions: 5 µM peptide biotin-conjugated at N-terminus, 1 µM NAE, 1 µM Ubc12, 1 µM cullin, 1 h, room temperature, streptavidin-HRP blot
Protocol: as §1, §2, §3, §4

Ubc12 [6] = assay: Inhibition of Nedd8 transfer to Ubc12; format: biochemical; conditions: 5–200 µM peptide, 0.5 µM NAE, 0.5 µM Ubc12, 1 µM cullin, 1 h, then 5 µM HA-Nedd8, 15 min, Western blot
From the text: as §1

NAE (E1) = assay: Western blot: formation of UB∼NAE thioester conjugates; format: biochemical; conditions: 5 µM HA-tagged protein, 1 µM NAE, 1 mM ATP, 1 h, room temperature, anti-HA Western blot
Protocol: (§5) Figure 6 Transfer of phage selected UB variants to NAE (E1), Ubc12 (E2), and cullin-3. HA-tagged wt UB, wt Nedd8 and UB variants were used in the assay. In the control reaction, either Ubc12 or cullin-3 in complex with Rbx1 was missing. The blots were probed with a mouse anti-HA antibody and a goat anti-mouse IgG antibody linked to HRP.
(§6) 20 µL of the reaction mixture were loaded on a 4–15% SDS-PAGE gel (Bio-Rad). After electrophoresis, the protein bands were electroblotted onto a piece of polyvinylidene fluoride membrane (Bio-Rad). The membrane was blocked with 3% BSA in TBS buffer for 1 hour followed by incubation with 3% BSA in TBS buffer containing 1∶500 diluted 200 µg/mL anti-HA antibody (Santa Cruz Biotechnology) and 1∶10,000 diluted anti-mouse horseradish peroxidase conjugate (Pierce) for 1 hour, respectively. The membrane was then washed 5 times with TBS-T buffer and 5 times with TBS buffer followed by detection with the ECL luminescent detection kit (GE Healthcare).

Ubc12 (E2) = assay: Western blot: transfer of UB variants to Ubc12; format: biochemical; conditions: 5 µM HA-tagged protein, 1 µM NAE, 1 µM Ubc12, 1 µM cullin, 1 mM ATP, 1 h, room temperature, anti-HA Western blot
Protocol: as §5, §6

cullin-3 [7] = assay: Western blot: transfer of UB variants to cullin-3; format: biochemical; conditions: 5 µM HA-tagged protein, 1 µM NAE, 1 µM Ubc12, 1 µM cullin, 1 mM ATP, 1 h, room temperature, anti-HA Western blot
Protocol: as §5, §6

[8] = molecular target: T2, Nedd8 activating enzyme (NAE), heterodimer of APPBP1 and Uba3 (UniProt Q13564 1-534; Q8TBC4 33-463); assay: cell-based or functional assay
T2 sequence 1: T1 sequence (Q13564 1-534 partner)
T2 sequence 2: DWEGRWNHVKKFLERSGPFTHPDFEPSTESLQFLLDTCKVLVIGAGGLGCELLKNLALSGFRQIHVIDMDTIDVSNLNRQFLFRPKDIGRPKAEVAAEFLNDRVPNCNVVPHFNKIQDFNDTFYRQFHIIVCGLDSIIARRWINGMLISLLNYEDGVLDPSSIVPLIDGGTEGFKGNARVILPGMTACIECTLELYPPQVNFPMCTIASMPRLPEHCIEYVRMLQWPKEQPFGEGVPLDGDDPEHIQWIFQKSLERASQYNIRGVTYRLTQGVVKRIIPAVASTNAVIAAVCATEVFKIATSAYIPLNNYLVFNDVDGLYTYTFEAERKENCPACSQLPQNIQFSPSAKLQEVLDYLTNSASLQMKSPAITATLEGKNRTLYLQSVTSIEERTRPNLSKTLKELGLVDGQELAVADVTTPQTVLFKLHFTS

With VLALRGG [pN26] the “formation of peptide∼Ubc12 conjugates” value (Ubc12 [1]) was “strong activity for the formation of peptide∼Ubc12 conjugates”, the “Nedd8 conjugates with cullin after preloading with peptide” value (from here on “Nedd8 conjugates with cullin”) (cullin-3 [2]) was “did not produce any Nedd8 conjugates with NAE, Ubc12 or cullin” and the “Nedd8 conjugates with NAE after preloading with peptide” value (“Nedd8 conjugates with NAE” for short) (NAE [3]) was “did not produce any Nedd8 conjugates with NAE, Ubc12 or cullin”. The “formation of peptide∼NAE thioester conjugates” value (NAE [4]) was “can form thioester conjugates with NAE”, the “activation by NAE” value (NAE [5]) was “can be activated at a level significantly higher than the background” and the “transfer of peptide to cullin 3” value (cullin 3) was “can be further transferred to cullin 3”. For the same molecule, the “Nedd8 conjugates with Ubc12 after preloading with peptide” value (from here on “Nedd8 conjugates with Ubc12”) (Ubc12 [6]) was “did not produce any Nedd8 conjugates with NAE, Ubc12 or cullin”.

“VWLSYGG [pN1, Nedd8-mimicking heptameric peptide VWLSYGG]” was tested, and the “formation of peptide∼Ubc12 conjugates” value (Ubc12 [1]) was “no observable formation of peptide∼Ubc12 conjugates”, the “Nedd8 conjugates with cullin” value (cullin-3 [2]) was “did not produce any Nedd8 conjugates with NAE, Ubc12 or cullin” and the “Nedd8 conjugates with NAE” value (NAE [3]) was “did not produce any Nedd8 conjugates with NAE, Ubc12 or cullin”. For the same molecule, the “formation of peptide∼NAE thioester conjugates” value (NAE [4]) was “can form thioester conjugates with NAE; also recorded: form peptide∼NAE conjugates at a similar level as pN26”, the “activation by NAE” value (NAE [5]) was “can be activated at a level significantly higher than the background” and the kcat/Km (NAE [5]) was 0.18 µM⁻¹ min⁻¹. For the same molecule, the “transfer of peptide to cullin 3” value (cullin 3) was “none of them can form peptide-cullin conjugates at a detectable level” and the “Nedd8 conjugates with Ubc12” value (Ubc12 [6]) was “did not produce any Nedd8 conjugates with NAE, Ubc12 or cullin”.

For “VAAAAGG [pN11, heptameric peptide VAAAAGG derived from UB variant N11]”, the “activation by NAE” value (NAE [5]) was “not reactive with NAE”.

For “VMLFYGG [pN7, Nedd8-mimicking heptameric peptide VMLFYGG]”, the “formation of peptide∼Ubc12 conjugates” value (Ubc12 [1]) was “only has low activity for transferring to Ubc12”, the “Nedd8 conjugates with cullin” value (cullin-3 [2]) was “did not produce any Nedd8 conjugates with NAE, Ubc12 or cullin” and the “Nedd8 conjugates with NAE” value (NAE [3]) was “did not produce any Nedd8 conjugates with NAE, Ubc12 or cullin”. The “formation of peptide∼NAE thioester conjugates” value (NAE [4]) was “can form thioester conjugates with NAE; also recorded: form peptide∼NAE conjugates at a similar level as pN26”, the “activation by NAE” value (NAE [5]) was “can be activated at a level significantly higher than the background” and the kcat/Km (NAE [5]) was 0.16 µM⁻¹ min⁻¹. For the same molecule, the “transfer of peptide to cullin 3” value (cullin 3) was “none of them can form peptide-cullin conjugates at a detectable level” and the “Nedd8 conjugates with Ubc12” value (Ubc12 [6]) was “did not produce any Nedd8 conjugates with NAE, Ubc12 or cullin”.

For “N27: UB variant from phage selection, C-terminal sequence 71YQTYSG76, Gly75 replaced by Ser”, the “formation of UB∼NAE conjugates” value (NAE (E1)) was “normal level of NAE activation and thioester formation with NAE”, the “transfer from NAE to Ubc12 (UB∼Ubc12 conjugates)” value (Ubc12 (E2)) was “does not form a UB∼Ubc12 conjugate” and the “transfer to cullin (cullin modification)” value (cullin-3 [7]) was “its transfer to Ubc12 and cullin is blocked”.

For “N11: UB variant from phage selection, C-terminal sequence 71AAAAGG76”, the “transfer from NAE to Ubc12 (UB∼Ubc12 conjugates)” value (Ubc12 (E2)) was “can also be transferred from NAE to Ubc12” and the “transfer to cullin (cullin modification)” value (cullin-3 [7]) was “substantial cullin modification at a level similar or exceeding that of wt Nedd8; also recorded: can also be transferred through the NAE-Ubc12 cascade to modify cullin at a similar level as N26 and the wt Nedd8”.

B1: peptide pN26 (70VLALRGG76) (peptide)
peptide: VLALRGG
For B1, the “kcat of the ATP/PPi exchange reaction catalyzed by NAE” value [8] was 26 min⁻¹ and the “kcat/Km of the ATP/PPi exchange reaction catalyzed by NAE” value [8] was 0.29 µM⁻¹ min⁻¹.

B2: peptide pN1 (70VWLSYGG76) (peptide)
peptide: VWLSYGG
B2 was tested, and the “Km (K1/2) of the ATP/PPi exchange reaction catalyzed by NAE” value [8] was 130 µM, the “kcat of the ATP/PPi exchange reaction catalyzed by NAE” value [8] was 24 min⁻¹ and the “kcat/Km of the ATP/PPi exchange reaction catalyzed by NAE” value [8] was 0.18 µM⁻¹ min⁻¹.

B3: peptide pN7 (70VMLFYGG76) (peptide)
peptide: VMLFYGG
For B3, the “Km (K1/2) of the ATP/PPi exchange reaction catalyzed by NAE” value [8] was 155 µM, the “kcat of the ATP/PPi exchange reaction catalyzed by NAE” value [8] was 24 min⁻¹ and the “kcat/Km of the ATP/PPi exchange reaction catalyzed by NAE” value [8] was 0.16 µM⁻¹ min⁻¹.
